Measurements from PMC4719150 (Biochemistry, 2015).
Like-named read-outs stand apart in the source and are kept apart here. Numbered stars: 1 amine (or outer) side, 2 acyl side, 3 side chain; on linkers, the order of the positions; unused ones are H or OH. Bridge positions count the residues as written; N and C are the ends. Square brackets hold non-standard residues; d marks the D form. Peptide text beside a SMILES is read from it. I, II: the chains in the order shown. Actinocin(9to1) = Cc1c2oc3c(C)ccc(C(=O)[*:1])c3nc-2c(C(=O)[*:2])c(N)c1=O; NMeV = CN[C@H](C(=O)O)C(C)C; Sar = CNCC(=O)O

Key:
[1] = test system: recIAV WSN-NanoLuc; test: microbe, parasite or virus in culture; format: cell-based; details: Influenza A virus, BEAS-2B, 40 h, read-out: % Inhibition (anti-IAV)
[2] = test system: recRSV A2-L19F-renilla; test: microbe, parasite or virus in culture; format: cell-based; details: human respiratory syncytial virus, BEAS-2B, read-out: EC50 RSV A2-L19F-renilla
[3] = test system: recIAV WSN-NanoLuc; details: for EC50: read-out: EC50 IAV WSN-nanoLuc
[4] = test system: recRSV A2-L19FD489E-fireSMASh; details: for EC50: read-out: EC50 RSV A2-L19FD489E-fireSMASh
[5] = in vitro; details: human
[6] = test system: recIAV WSN-NanoLuc; test: microbe, parasite or virus in culture; details: Influenza A virus, BEAS-2B, read-out: EC50 IAV WSN-nanoLuc
[7] = test system: BEAS-2B cells; details: uninfected BEAS-2B cells, highest concentration assessed 10 μM, tox = less than 50% cell viability after 44 hours at ≤10 μM; for CC50: read-out: CC50 (PrestoBlue cell viability)
[8] = test system: recRSV-L19FD489E-fireSMASh; test: Peak progeny virus titers after incubation with ASV; format: cell-based, respiratory syncytial virus; details: 3 μM ASV versus vehicle
[9] = test system: fireSMASh (firefly luciferase fused to SMASh tag); test: Firefly luciferase activity after virus growth in the presence of ASV; format: cell-based; details: growth of recRSV-L19FD489E-fireSMASh in the presence of 3 μM ASV; 44 hours post-infection

## CN(CCOc1ccc(CC2SC(=O)NC2=O)cc1)c1ccccn1 (centres unmarked) [Rosiglitazone]
[1]
  inhibition at 5 µM: 35 ± 5%

## CN(Cc1cnc2nc(N)nc(N)c2n1)c1ccc(C(=O)N[C@@H](CCC(=O)O)C(=O)O)cc1 [Methotrexate]
[1]
  inhibition at 5 µM: 100 ± 0.6%

## CC1=C(/C=C/C(C)=C/C=C/C(C)=C/C(=O)Nc2ccc(O)cc2)C(C)(C)CCC1 [Fenretinide]
[2]
  EC50: 4.8 µM
[3]
  EC50 IAV WSN-nanoLuc: inactive^e
  effect on IAV reporter strain: unaffected
[4]
  SI RSV [CC50/EC50]: SIRSV >2.8 Dengue [62], HIV [61]
[5]
  CC50: > 10 µM

## Nc1ccn([C@@H]2O[C@H](CO)[C@@H](O)C2(F)F)c(=O)n1 [Gemcitabine]
[2]
  EC50: 0.05 µM
[3]
  SI IAV [CC50/EC50]: SIIAV >100 SIRSV >111 HIV, IAV [49], [50]
[4]
  SI RSV [CC50/EC50]: SIIAV >100 SIRSV >111 HIV, IAV [49], [50]
[5]
  CC50: > 10 µM
[6]
  EC50: 0.1 µM

## c1cnc2c(c1)ccc1cccnc12 [Phenanthroline]
[5]
  CC50: 2.4 µM

## Cc1c(-c2ccc(-c3ccccc3F)cc2)nc2ccc(F)cc2c1C(=O)O [Brequinar]
[2]
  EC50: 1.8 µM
[3]
  SI IAV [CC50/EC50]: SIIAV >3.8 SIRSV >6.3 conf. broad spectrum [81], [82]
[4]
  SI RSV [CC50/EC50]: SIIAV >3.8 SIRSV >6.3 conf. broad spectrum [81], [82]
[5]
  CC50: > 10 µM
[6]
  EC50: 2.6 µM

## CC[C@H]1CN2CCc3cc(OC)c(OC)cc3[C@@H]2C[C@@H]1C[C@H]1NCCc2cc(OC)c(OC)cc21 [Emetine]
[7]
  CC50 (PrestoBlue cell viability): tox^d

## Cc1c2oc3c(C)ccc(C(=O)N[C@@H]4C(=O)N[C@H](C(C)C)C(=O)N5CCC[C@H]5C(=O)N(C)CC(=O)N(C)[C@@H](C(C)C)C(=O)O[C@@H]4C)c3nc-2c(C(=O)N[C@@H]2C(=O)N[C@H](C(C)C)C(=O)N3CCC[C@H]3C(=O)N(C)CC(=O)N(C)[C@@H](C(C)C)C(=O)O[C@@H]2C)c(N)c1=O [Actinomycin D] (I: T[dV]P[Sar][NMeV] / II: T[dV]P[Sar][NMeV]; ester I:1-I:C, II:1-II:C; linker I:N-II:N via Actinocin(9to1))
[1]
  inhibition at 5 µM: 104 ± 1.5%

## Oc1ccc(/C=C/c2ccc(/C=C/c3ccc(O)cc3)c(Br)c2)cc1 [K114]
[3]
  EC50 IAV WSN-nanoLuc: inactive^e
[4]
  EC50 RSV A2-L19FD489E-fireSMASh: inactive^e
[7]
  CC50: > 10 µM

## CCCCCCCCCCCCCCCCCCOCC(COP(=O)([O-])OCC[N+](C)(C)C)OC (centres unmarked) [ET-18-OCH3]
[3]
  EC50 IAV WSN-nanoLuc: inactive^e
[4]
  EC50 RSV A2-L19FD489E-fireSMASh: inactive^e
[7]
  CC50: > 10 µM

## Nc1nc2c(ncn2CCOCP(=O)(O)O)c(=O)[nH]1 [PMEG]
[3]
  SI IAV [CC50/EC50]: SIIAV 50 SIRSV 100 HPV [67]
  EC50: 0.2 µM
[4]
  SI RSV [CC50/EC50]: SIIAV 50 SIRSV 100 HPV [67]
  potency against RSV relative to IAV: approximately 2 fold
  EC50: 0.1 µM
[7]
  CC50: 10 µM

## CC(=O)OC[C@H]1O[C@@H]([S-])[C@H](OC(C)=O)[C@@H](OC(C)=O)[C@@H]1OC(C)=O.CCP(CC)CC.[Au+] [Auranofin]
[7]
  CC50 (PrestoBlue cell viability): tox^d

## CCOC(=O)C1=C(C)NC(C)=C(C(=O)OC)C1c1cccc([N+](=O)[O-])c1 (centres unmarked) [Nitrendipine]
[3]
  EC50 IAV WSN-nanoLuc: inactive^e
[4]
  EC50 RSV A2-L19FD489E-fireSMASh: inactive^e
[5]
  CC50: > 10 µM

## C=C[C@@H]1C[C@]1(NC(=O)[C@@H]1C[C@@H](Oc2ncc(OC)c3ccc(Cl)cc23)CN1C(=O)[C@@H](NC(=O)OC(C)(C)C)C(C)(C)C)C(=O)NS(=O)(=O)C1CC1 [ASV, Asunaprevir]
[8]
  effect on progeny virus titers: no effect
[9]
  reduction of firefly luciferase activity: approximately 90%

## CC(C)[C@]12O[C@H]1[C@@H]1O[C@]13[C@]1(O[C@H]1C[C@H]1C4=C(CC[C@@]13C)C(=O)OC4)[C@@H]2O [Triptolide]
[1]
  inhibition at 5 µM: 103 ± 1.2%
[2]
  EC50: 0.6 µM
[3]
  SI (CC50/EC50) value at dose-response testing: below two
[5]
  CC50: 0.3 µM
[6]
  EC50: 0.15 µM

## Nc1nc(N)c2nc(-c3ccccc3)c(N)nc2n1 [Triamterene]
[3]
  EC50 IAV WSN-nanoLuc: inactive^e
[4]
  EC50 RSV A2-L19FD489E-fireSMASh: inactive^e
[5]
  CC50: > 10 µM

## NC(=O)c1ncn([C@@H]2O[C@H](CO)[C@@H](O)[C@H]2O)n1 [Ribavirin]
[2]
  EC50: 2.9 µM
[3]
  SI IAV [CC50/EC50]: SIIAV >2.2 SIRSV >3.9 broad spectrum [84]
[4]
  SI RSV [CC50/EC50]: SIIAV >2.2 SIRSV >3.9 broad spectrum [84]
[5]
  CC50: > 10 µM
[6]
  EC50: 4.5 µM

## CCN(CC)CCNC(=O)c1c(C)[nH]c(/C=C2\C(=O)Nc3ccc(F)cc32)c1C [Sunitinib]
[7]
  CC50 (PrestoBlue cell viability): tox^d

## COc1cc2nc(N3CCCN(C)CC3)nc(NC3CCN(Cc4ccccc4)CC3)c2cc1OC [BIX 01294]
[3]
  EC50 IAV WSN-nanoLuc: inactive^e
[4]
  EC50 RSV A2-L19FD489E-fireSMASh: inactive^e
[5]
  CC50: > 10 µM

## CC(=O)[C@]1(O)Cc2c(O)c3c(c(O)c2[C@@H](O[C@H]2C[C@H](N)[C@H](O)[C@H](C)O2)C1)C(=O)c1ccccc1C3=O [Idarubicin]
[1]
  inhibition at 5 µM: 97 ± 1%
[7]
  CC50 (PrestoBlue cell viability): tox^d

## CC[C@]1(O)C[C@H]2CN(CCc3c([nH]c4ccccc34)[C@@](C(=O)OC)(c3cc4c(cc3OC)N(C=O)[C@H]3[C@@](O)(C(=O)OC)[C@H](OC(C)=O)[C@]5(CC)C=CCN6CC[C@]43[C@@H]65)C2)C1 [Vincristine]
[1]
  inhibition at 5 µM: 50 ± 2.9%

## Nc1nc(N)c2nc(CNc3ccc(C(=O)N[C@@H](CCC(=O)O)C(=O)O)cc3)cnc2n1 [Aminopterin]
[2]
  EC50: 0.05 µM
[3]
  SI IAV [CC50/EC50]: SIIAV 111 SIRSV 143 conf. broad spectrum [79], [80]
[4]
  SI RSV [CC50/EC50]: SIIAV 111 SIRSV 143 conf. broad spectrum [79], [80]
[5]
  CC50: 10 µM
[6]
  EC50: 0.09 µM

## Nc1nc2c(c(=O)[nH]1)C[C@@H](CCc1ccc(C(=O)N[C@@H](CCC(=O)O)C(=O)O)cc1)CN2 [Lometrexol]
[7]
  CC50 (PrestoBlue cell viability): tox^d

## O=C1C(=Cc2ccccc2)C[C@@]2(O)[C@H]3Cc4ccc(O)c5c4[C@@]2(CCN3CC2CC2)[C@H]1O5 [BNTX-7]
[3]
  EC50 IAV WSN-nanoLuc: inactive^e
  effect on IAV reporter strain: unaffected
[4]
  SI RSV [CC50/EC50]: SIRSV >4
  EC50: 2.5 µM
[7]
  CC50: > 10 µM

## COc1cc([C@@H]2c3cc4c(cc3[C@@H](O[C@@H]3O[C@@H]5CO[C@@H](C)O[C@H]5[C@H](O)[C@H]3O)[C@H]3COC(=O)[C@H]23)OCO4)cc(OC)c1O [Etoposide]
[1]
  inhibition at 5 µM: 56 ± 5.6%

## CC(=O)N[C@H]1[C@H]([C@H](O)[C@H](O)CO)OC(C(=O)O)=C[C@@H]1N=C(N)N [Zanamivir]
[3]
  SI IAV [CC50/EC50]: SIIAV >500 IAV inhibitor [83]
[4]
  EC50 RSV A2-L19FD489E-fireSMASh: Inactive
[5]
  CC50: > 10 µM
[6]
  EC50: 0.02 µM

## O=[N+]([O-])c1ccc2c(c1)S(=O)(=O)C=C2 [Stattic]
[3]
  SI IAV [CC50/EC50]: SIIAV 3
  EC50: 3.3 µM
[4]
  EC50: 5.9 µM
[7]
  CC50: 10 µM

## CCN(CC)CCOc1ccc(Nc2ncc3cc(-c4c(Cl)cccc4Cl)c(=O)n(C)c3n2)cc1 [PD-166285]
[7]
  CC50 (PrestoBlue cell viability): tox^d

## Cc1nc2ccc(CN(C)c3ccc(C(=O)N[C@@H](CCC(=O)O)C(=O)O)s3)cc2c(=O)[nH]1 [Raltitrexed]
[1]
  inhibition at 5 µM: 60 ± 6.5%

## C[n+]1cc2c3c(ccc2c2ccc4cc5c(cc4c21)OCO5)OCO3 [Sanguinarine]
[7]
  CC50 (PrestoBlue cell viability): tox^d

## Cn1c(=O)c(-c2c(Cl)cccc2Cl)cc2cnc(Nc3ccc(N4CCOCC4)cc3)nc21 [PD173952]
[7]
  CC50 (PrestoBlue cell viability): tox^d

## CNc1ccc2oc(C[C@H]3O[C@@]4(CC[C@H]3C)O[C@H]([C@H](C)C(=O)c3ccc[nH]3)[C@H](C)C[C@H]4C)nc2c1C(=O)O [Calcimycin]
[7]
  CC50 (PrestoBlue cell viability): tox^d

## COc1cccc2c1C(=O)c1c(O)c3c(c(O)c1C2=O)C[C@@](O)(C(=O)CO)C[C@@H]3O[C@H]1C[C@H](N)[C@@H](O)[C@H](C)O1 [Epirubicin]
[1]
  inhibition at 5 µM: 75 ± 3.1%

## Cn1nnc2c(C(N)=O)ncn2c1=O [Temozolomide]
[1]
  inhibition at 5 µM: 55 ± 3.2%

## COC(=O)C[C@](O)(CCCC(C)(C)O)C(=O)O[C@@H]1C(OC)=C[C@]23CCCN2CCc2cc4c(cc2[C@H]13)OCO4 [Homoharringtonine]
[1]
  inhibition at 5 µM: 90 ± 2.6%
